Read-outs that look alike come from different tables or passages of the source.
Assays:
[1] = tested on: bladder cancer cell lines; test: Cell based assay, cell viability (CellTiter-Glo), bladder cancer cell lines; conditions: 72 hours treatment, 0 to 2 μM, CellTiter-Glo
Procedure: (§1) Commercially available bladder cancer, prostate cancer, lung cancer, breast cancer, blood cancer, pancreatic cancer, colorectal cancer, brain cancer, neuroblastoma, melanoma, liver cancer, cervical carcinoma, ovarian cancer, renal cancer, and papilloma cell lines were each treated with trypsin-EDTA and cultured, followed by being seeded in each well of a 96 well plate. After 24 hours of treatment at constant temperature, the respective cells were treated with the candidate compound so that a final concentration became 0 to 2 μM. The treated cells were additionally cultured for 72 hours, and cell viability was measured by using an ATP detection method (CellTiter-Glo® Luminescent Cell Viability Assay, Promega).

[2] = tested on: prostate cancer cell lines (e.g. DU145/TXR); test: Cell based assay, cell viability (CellTiter-Glo), prostate cancer cell lines; conditions: Homo sapiens, 72 hours treatment, final concentration 0 to 2 μM
Procedure: as §1

[3] = tested on: melanoma cell lines; test: Cell based assay, cell viability (CellTiter-Glo), melanoma cell lines; conditions: Homo sapiens; LOX-IMVI cell line
Procedure: as §1

[4] = tested on: liver cancer cell lines; test: Cell based assay, cell viability (CellTiter-Glo), liver cancer cell lines; conditions: Homo sapiens, SK-HEP1; SK-HEP-1 cell line
Procedure: as §1

[5] = 253J cells, read-out: IC50, bladder cancer cell line 253J
[6] = 5637 cells, read-out: IC50, bladder cancer cell line 5637
[7] = Homo sapiens, T-24, T24 cells, read-out: IC50, bladder cancer cell line T24
[8] = Homo sapiens, UMUC3, UM-UC-3 cells, read-out: IC50, bladder cancer cell line UM-UC-3
[9] = Homo sapiens, J82 cells, read-out: IC50, bladder cancer cell line J82
[10] = Homo sapiens, KU-19-19 cells, read-out: IC50, bladder cancer cell line KU-19-19
[11] = MBT-2 cells, read-out: IC50, bladder cancer cell line MBT-2
[12] = CWR22 cells, read-out: IC50, prostate cancer cell line CWR22
[13] = DU-145, DU145/TXR cells, read-out: IC50, prostate cancer cell line DU145/TXR
[14] = DU-145, DU145 cells, read-out: IC50, prostate cancer cell line DU145
[15] = LNcap cells, read-out: IC50, prostate cancer cell line LNcap
[16] = PC-3 cells, read-out: IC50, prostate cancer cell line PC-3

SMILES	IC50 [1, 5] [nM]	IC50 [1, 6] [nM]	IC50 [1, 7] [nM]	IC50 [1, 8] [nM]	IC50 [1, 9] [nM]	IC50 [1, 10] [nM]	IC50 [1, 11] [nM]	IC50 [2, 12] [nM]	IC50 [2, 13] [nM]	IC50 [2, 14] [nM]	IC50 [2, 15] [nM]	IC50 [2, 16] [nM]	IC50 [3] [nM]	IC50 [4] [nM]
CC(=O)c1c(Sc2ccccc2)[nH]c2c(Br)ccc(Cl)c2c1=O [Compound 12, 3-acetyl-8-bromo-5-chloro-2-(phenylthio)quinolin-4(1H)-one]	> 2000	> 2000	> 2000	> 2000	> 2000	> 2000	> 2000	> 2000	> 2000	> 2000	> 2000	> 2000	> 2000	> 2000
CC(=O)c1c([S+]([O-])Cc2cccc(S(F)(F)(F)(F)F)c2)[nH]c2c(Br)ccc(Cl)c2c1=O (stereo not shown) [Compound 77, 3-acetyl-8-bromo-5-chloro-2-((3-(pentafluoro--sulfanyl)benzyl)sulfinyl)quinolin-4(1H)-one]	900	1680	1510		1620			> 2000	930	930	> 2000	1480	1160	1090
CC(=O)c1c([S+]([O-])Cc2ccc(Cl)cc2)[nH]c2c(Br)ccc(Cl)c2c1=O (stereo not shown) [Compound 11, 3-acetyl-8-bromo-5-chloro-2-((4-chlorobenzyl)sulfinyl)quinolin-4(1H)-one]		> 2000	1830		> 2000			> 2000	1810	> 2000	> 2000	> 2000	> 2000	> 2000
CC(=O)c1c(SCc2cccc(I)c2)[nH]c2c(Br)ccc(Cl)c2c1=O [Compound 47, 3-acetyl-8-bromo-5-chloro-2-((3-iodobenzyl)thio)quinolin-4(1H)-one]	> 2000	> 2000	> 2000	> 2000	> 2000	> 2000	> 2000	> 2000	> 2000	> 2000	> 2000	> 2000	> 2000	> 2000
CCS(=O)(=O)n1c([S+](C)[O-])c(C(C)=O)c(=O)c2c(Cl)ccc(Br)c21 (stereo not shown) [Compound 39, 3-acetyl-8-bromo-5-chloro-1-(ethylsulfonyl)-2-(methylsulfinyl)quinolin-4(1H)-one]	> 2000	> 2000	> 2000	> 2000	> 2000	> 2000	> 2000	> 2000	> 2000	> 2000	> 2000	> 2000	> 2000	> 2000
CC(=O)c1c([S+]([O-])C(C)c2ccccc2)[nH]c2c(Br)ccc(Cl)c2c1=O (stereo not shown) [Compound 26, 3-acetyl-8-bromo-5-chloro-2-((1-phenylethyl)sulfinyl)quinolin-4(1H)-one]	> 2000	1600	> 2000		> 2000			> 2000	> 2000	> 2000	> 2000		> 2000	> 2000
CC(C)C(=O)c1c([S+]([O-])Cc2ccc(SC(F)(F)F)cc2)[nH]c2c(F)ccc(F)c2c1=O (stereo not shown) [Compound 85, 5,8-difluoro-3-isobutyryl-2-((4-((trifluoromethyl)thio)benzyl)sulfinyl)quinolin-4(1H)-one]	> 2000	> 2000	> 2000		> 2000			> 2000	> 2000	> 2000	> 2000		> 2000	> 2000
CSc1c(C(C)=O)c(=O)c2cc(F)ccc2n1C [Compound 7, 3-acetyl-6-fluoro-1-methyl-2-(methylthio)quinolin-4(1H)-one]	> 2000	> 2000	> 2000	> 2000	> 2000	> 2000	> 2000	> 2000	> 2000	> 2000	> 2000	> 2000	> 2000	> 2000
COC(=O)c1ccc(C[S+]([O-])c2[nH]c3c(Cl)ccc(Cl)c3c(=O)c2C(C)=O)cc1 (stereo not shown) [Compound 91, methyl 4-(((3-acetyl-5,8-dichloro-4-oxo-1,4-dihydroquinolin-2-yl)sulfinyl)methyl)benzoate]	> 2000	> 2000	> 2000		> 2000			> 2000	1980	> 2000	> 2000		> 2000	1720
CC(=O)c1c([S+]([O-])Cc2cccc(I)c2)[nH]c2c(Br)ccc(Cl)c2c1=O (stereo not shown) [Compound 48, 3-acetyl-8-bromo-5-chloro-2-((3-iodobenzyl)sulfinyl)quinolin-4(1H)-one]	> 2000	> 2000	> 2000		> 2000			> 2000	1570	> 2000	> 2000		> 2000	> 2000
CSc1c(C(C)=O)c(=O)c2c(Cl)ccc(Br)c2n1S(=O)(=O)c1ccc([N+](=O)[O-])cc1 [Compound 38, 3-acetyl-8-bromo-5-chloro-2-(methylthio)-1-((4-nitrophenyl)sulfonyl)quinolin-4(1H)-one]	> 2000	> 2000	> 2000	> 2000	> 2000	> 2000	> 2000	> 2000	> 2000	> 2000	> 2000	> 2000	> 2000	> 2000
CC(=O)c1c([S+]([O-])Cc2ccc(C(F)(F)F)o2)[nH]c2c(F)ccc(F)c2c1=O (stereo not shown) [Compound 81, 3-acetyl-5,8-difluoro-2-(((5-(trifluoromethyl)furan-2-yl)methyl)sulfinyl)quinolin-4(1H)-one]	> 2000	> 2000	> 2000		> 2000			> 2000	> 2000	> 2000	> 2000		> 2000	> 2000
CC(=O)c1c([S+]([O-])Cc2cccc(C#N)c2)[nH]c2c(Br)ccc(Cl)c2c1=O (stereo not shown) [Compound 28, 3-(((3-acetyl-8-bromo-5-chloro-4-oxo-1,4-dihydroquinolin-2-yl)sulfinyl)methyl)benzonitrile]		1030	820		1330			1070	1010	1280	1340	1160	880	760
O=C(c1ccccc1)c1c([S+]([O-])Cc2ccc(S(F)(F)(F)(F)F)cc2)[nH]c2c(F)ccc(F)c2c1=O (stereo not shown) [Compound 87, 3-benzoyl-5,8-difluoro-2-((4-(pentafluoro--sulfanyl)benzyl)sulfinyl)quinolin-4(1H)-one]	> 2000	> 2000	> 2000		> 2000			> 2000	> 2000	> 2000	> 2000		> 2000	> 2000
CC(=O)c1c([S+]([O-])Cc2ccc(S(F)(F)(F)(F)F)cc2)[nH]c2c(F)ccc(F)c2c1=O (stereo not shown) [Compound 80, 3-acetyl-5,8-difluoro-2-((4-(pentafluoro--sulfanyl)benzyl)sulfinyl)quinolin-4(1H)-one]	> 2000	> 2000	> 2000		> 2000			> 2000	> 2000	> 2000	> 2000		> 2000	> 2000
CC(=O)c1c([S+]([O-])c2ccc(Br)cc2)[nH]c2c(Br)ccc(Cl)c2c1=O (stereo not shown) [Compound 17, 3-acetyl-8-bromo-2-((4-bromophenyl)sulfinyl)-5-chloroquinolin-4(1H)-one]	> 2000	> 2000	> 2000		> 2000			> 2000	> 2000	> 2000	> 2000		> 2000	> 2000
CC(=O)c1c([S+]([O-])Cc2ccccc2)nc2c(Br)ccc(Cl)c2c1O (stereo not shown) [Compound 53, 1-(2-(benzylsulfinyl)-8-bromo-5-chloro-4-hydroxyquinolin-3-yl)ethan-1-one]	> 2000	> 2000	> 2000		> 2000			> 2000	> 2000	> 2000	> 2000		> 2000	> 2000
CC(=O)c1c([S+]([O-])Cc2cc(C)on2)[nH]c2c(F)ccc(F)c2c1=O (stereo not shown) [Compound 82, 3-acetyl-5,8-difluoro-2-(((5-methylisoxazol-3-yl)methyl)sulfinyl)quinolin-4(1H)-one]	> 2000	> 2000	> 2000		> 2000			> 2000	> 2000	> 2000	> 2000		> 2000	> 2000
COc1ccccc1[S+]([O-])c1[nH]c2c(Br)ccc(Cl)c2c(=O)c1C(C)=O (stereo not shown) [Compound 15, 3-acetyl-8-bromo-5-chloro-2-((2-methoxyphenyl)sulfinyl)quinolin-4(1H)-one]	> 2000	> 2000	> 2000		> 2000			> 2000	1880	> 2000	> 2000		> 2000	> 2000
CC(=O)c1c([S+]([O-])Cc2ccccc2)nc2c(Br)ccc(Cl)c2c1O (stereo not shown) [Compound 4]	1000	1910	1310		> 2000			1670	1190	1410	> 2000	1520	1090	1130
CC(=O)c1c(SCc2cccc(F)c2)[nH]c2c(Br)ccc(Cl)c2c1=O [Compound 49, 3-acetyl-8-bromo-5-chloro-2-((3-fluorobenzyl)thio)quinolin-4(1H)-one]	> 2000	> 2000	> 2000	> 2000	> 2000	> 2000	> 2000	> 2000	> 2000	> 2000	> 2000	> 2000		> 2000

— US11464770B2, “Anticancer pharmaceutical composition” (NATIONAL CANCER CENTER, priority 2016, dated 2022)
